Results from article PMC11796312, “Multifunctional, Fluorene‐Based Modulator of Cholinergic and GABAergic Neurotransmission as a Novel Drug Candidate for Palliative Treatment of Alzheimer's Disease” (Angewandte Chemie (International Ed. in English), 2024).
“And” between values parts separate entries of the source, which are not always exact repeats. Equal entries are not always repeated.

Experiment: Metabolic stability in human liver microsomes
Format: in vitro ADME
Conditions: 120 min incubation with HLMs
Method: The in silico prediction of the most probable sites of metabolism was done by MetaSite 6.0.1 software (Molecular Discovery Ltd, Hertfordshire, UK). The metabolic pathways determination in vitro was performed by 120 min compounds incubation with human liver microsomes (HLMs) purchased from Sigma-Aldrich, St. Louis, MO, USA. The reactions were conducted in 10 mM Tris–HCl buffer (pH 7.4) at 37 °C in the presence of NADPH Regeneration System (Promega, Madison, WI, USA). UPLC/MS analyses were done using the Waters ACQUITY TQD system with the TQ Detector (Waters, Milford, USA).
UPLC chromatograms of the reaction mixtures and the proposed structures of metabolites.
Figure S46. UPLC spectra after 120 min incubation of compound 6 with HLMs. 89.57% of the parent compound remained in the reaction mixture. One metabolite (M1, m/z = 460.30) […]
(1 picture or pasted object on this page, not shown here)

SMILES: O[C@H](CNCC1CC1)[C@H](Cc1ccccc1)NC1c2ccccc2-c2ccccc21 [Compound 6]
- parent compound remaining: 90% and 89.57%
